Data reported in US20250129370A1, “METHOD FOR REDUCING HEPATIC TRIGLYCERIDES” (ADAERATA, LIMITED PARTNERSHIP, priority 2022, published 2025).

Tests used:
[1] = tested on: mutated form of PCSK7 3′-UTR; assay: Luciferase reporter assay, miRNA target site-deleted PCSK7 3′-UTR, HEK293T cells; format: cell-based, human
Source text: The interactions between the miRNAs and their probable targets on PCSK7 were explored by cloning the potential target regions in psiCHECK-2™ (Promega, USA), a luciferase reporter vector. In psiCHECK-2™, hRluc, the Renilla luciferase gene, is located upstream of the target regions of interest cloned into the psiCHECK-2™ vector downstream of the Renilla gene. The region corresponding to the 3′-UTR of PCSK7 (926-nt sequences in length) that constituted the predicted miRNA response elements was PCR-amplified and cloned downstream of the Renilla luciferase gene in the psiCHECK-2™ vector (Promega, USA). For the confirmation of whether miRNA response elements (miRNA target sites) on the 3′-UTR of PCSK7 were active and had direct interactions with the miRNAs, different mutants (plasmids) were constructed via splicing by over-hang-extension (SOEing) PCR. For miR-125a-5p and miR-143-3p, each of which has two miRNA response elements on PCSK7 3′-UTR, three different mutant constructs were built. Two constructs were made by deleting a putative miRNA target site, and the third one was made by omitting both putative miRNA target sites in the 3′-UTR sequence of PCSK7. In the miR-409-3p mutant construct, a putative miRNA target site was deleted from the 3′-UTR sequence.
The HEK293T cells were co-transfected through the application of the wild-type psiCHECK-2, the wild-type PCSK7 3′-UTR, the mutant PCSK7 3′-UTR, and the miR-overexpressing vectors so that the direct interactions of the nominated miRNAs with PCSK7 3′-UTR could be investigated. In brief, 150 ng of the wild-type or mutated 3′-UTR constructs and 300 ng of the miRNA-expressing vectors were co-transfected in HEK293T-cultured 48-well plates using FuGENE™ (Invitrogen, USA). Additionally, the psiCHECK-2 and pEGFP-C1 mock vectors were transfected and utilized as controls for luciferase assay and transfection, respectively. Transfection efficiency was monitored by fluorescent microscopy (Nikon TE2000S, Japan) 36 hours following the procedure.
The PsiCHECK-2 reporter construct plasmid contained the Renilla luciferase gene upstream of PCSK7 3′-UTR and an independent firefly luciferase gene as an internal control for normalization. Forty-eight hours after HEK293T co-transfection, the luciferase reporter assay was carried out employing the Dual-Luciferase Reporter Assay System (Promega, USA) with a luminometer (Titertek-Berthold, Germany) in accordance with the manufacturer's protocol. Each sample was performed in triplicate, and the experiment was repeated at least three biological times. In short, a lysis buffer was added to each well after the removal of the media of the cell. Then, LARII Reagent was added, and after 20 minutes, the firefly luciferase activity was measured as a control. Afterward, Renilla activity was determined using Stop & Glo Reagent. The relative luciferase activity was calculated using the following formula: ΔFold Activity of Luciferase (Renilla/Firefly)=Average Renilla/Firefly from Samples A/B.
A luciferase reporter assay further confirmed that miR-125a-5p, miR-143-3p, and miR-409-3p directly targeted the 3′-UTR of the PCSK7 transcript since the negative regulatory effect was lost upon the deletion of the miRNA target sites (miR-125a-5p, miR-143-3p, and miR-409-3p) on the 3′-UTR of the PCSK7 reporter plasmid (FIGS. 28A-B). In this regard, three different mutated miR plasmids were constructed for both miR-125a-5p and miR-143-3p. Single-target sites of each miRNA were omitted individually in two separate plasmids, and the two putative binding sites of the miRNAs were deleted in the other plasmid.

[2] = target: T1, secretory short N-terminal fragment of apoB (s-apoB; aa 1-965), P04114
T1 chain: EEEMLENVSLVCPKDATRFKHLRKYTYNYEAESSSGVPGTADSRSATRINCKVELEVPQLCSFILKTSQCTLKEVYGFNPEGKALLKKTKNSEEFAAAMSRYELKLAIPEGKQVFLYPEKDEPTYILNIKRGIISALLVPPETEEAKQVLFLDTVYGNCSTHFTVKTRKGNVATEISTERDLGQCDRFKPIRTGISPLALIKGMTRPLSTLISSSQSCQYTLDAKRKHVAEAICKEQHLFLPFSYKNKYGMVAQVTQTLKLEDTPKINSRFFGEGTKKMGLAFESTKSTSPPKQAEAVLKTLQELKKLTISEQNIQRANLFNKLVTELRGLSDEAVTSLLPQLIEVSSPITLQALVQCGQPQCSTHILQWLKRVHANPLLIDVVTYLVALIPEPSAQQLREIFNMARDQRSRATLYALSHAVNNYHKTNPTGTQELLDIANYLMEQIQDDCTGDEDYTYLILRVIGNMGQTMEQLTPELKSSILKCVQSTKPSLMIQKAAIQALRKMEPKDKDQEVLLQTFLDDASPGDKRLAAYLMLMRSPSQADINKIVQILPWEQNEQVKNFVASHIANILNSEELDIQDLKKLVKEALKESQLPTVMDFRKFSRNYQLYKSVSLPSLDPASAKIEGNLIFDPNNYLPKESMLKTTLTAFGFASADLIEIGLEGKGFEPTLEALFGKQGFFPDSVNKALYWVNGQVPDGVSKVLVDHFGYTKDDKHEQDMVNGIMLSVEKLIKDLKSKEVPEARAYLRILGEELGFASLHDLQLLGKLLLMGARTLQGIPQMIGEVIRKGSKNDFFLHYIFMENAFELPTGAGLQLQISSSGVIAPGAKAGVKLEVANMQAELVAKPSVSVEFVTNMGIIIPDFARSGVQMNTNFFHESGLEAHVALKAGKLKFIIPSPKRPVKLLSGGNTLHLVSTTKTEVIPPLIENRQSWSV

miR-409-3p: miRNA with one target site in the PCSK7 3′-UTR, overexpressed from precursor vector (GAAUGUUGCUCGGUGAACCCCU; miRNA expressed from a precursor vector, further chemistry not given here)
luciferase activity ([1]; only putative target site of miR-409-3p absent): did not lead to a reduction

miR-143-3p: miRNA with two target sites in the PCSK7 3′-UTR, overexpressed from precursor vector (UGAGAUGAAGCACUGUAGCUC; miRNA expressed from a precursor vector, further chemistry not given here)
relative luciferase activity ([1]; Mut-a, deletion of the first target site): considerably diminished
relative luciferase activity ([1]; Mut-a,b, deletion of both miRNA target sites): no significant effect
relative luciferase activity ([1]; Mut-b, deletion of the second target site): considerably diminished

B1: rat PC7 (protein)
chain: SIHFNDPKYPQQWHLNNRRSPGRDINVTGVWERNVTGRGVTVVVVDDGVEHTVQDIAPNYSPEGSYDLNSNDPDPMPHPDEENGNHHGTRCAGEIAAVPNNSFCAVGVAYGSRIAGIRVLDGPLTDSMEAVAFNKHYQINDIYSCSWGPDDDGKTVDGPHQLGKAALQHGVMAGRQGFGSIFVVASGNGGQHNDNCNYDGYANSIYTVTIGAVDEEGRMPFYAEECASMLAVTFSGGDKMLRSIVTTDWDLQKGTGCTEGHTGTSAAAPLAAGMIALMLQVRPCLTWRDVQHIIVFTATQYEDHRADWLTNEAGFSHSHQHGFGLLNAWRLVNAAKIWTSVPYLASYVSPMLKENKAVPRSPHSLEVLWNVSRTDLEMSGLKTLEHVAVTVSITHPRRGSLELKLFCPSGMMSLIGAPRSMDSDPNGFNDWTFSTVRCWGERARGVYRLVIRDVGDEPLQVGILQQWQLTLYGSTWSPVDIKDRQSLLESAMSGKYLHDDFTLPCPPGLKIPEEDGYSITPNTLKTLVLVGCFSVFWTIYYMLEVCLSQRSKASTHGCRRGCCPWPPQSQNSKEVGTALESMPLCSSKDLDGVDSEHGDCTTASSLLAPELLGEADWSLSQNSKSDLDCPPHQPPDLKDGQIC
secretion of s-apoB (apo21), Western blot [2]: rat PC7 (rPC7) also enhanced by ~2-fold the secretion of s-apoB (apo21)

B2: rat PC7 soluble-KDEL variant (retained in the ER) (protein)
chain: SIHFNDPKYPQQWHLNNRRSPGRDINVTGVWERNVTGRGVTVVVVDDGVEHTVQDIAPNYSPEGSYDLNSNDPDPMPHPDEENGNHHGTRCAGEIAAVPNNSFCAVGVAYGSRIAGIRVLDGPLTDSMEAVAFNKHYQINDIYSCSWGPDDDGKTVDGPHQLGKAALQHGVMAGRQGFGSIFVVASGNGGQHNDNCNYDGYANSIYTVTIGAVDEEGRMPFYAEECASMLAVTFSGGDKMLRSIVTTDWDLQKGTGCTEGHTGTSAAAPLAAGMIALMLQVRPCLTWRDVQHIIVFTATQYEDHRADWLTNEAGFSHSHQHGFGLLNAWRLVNAAKIWTSVPYLASYVSPMLKENKAVPRSPHSLEVLWNVSRTDLEMSGLKTLEHVAVTVSITHPRRGSLELKLFCPSGMMSLIGAPRSMDSDPNGFNDWTFSTVRCWGERARGVYRLVIRDVGDEPLQVGILQQWQLTLYGSTWSPVDIKDRQSLLESAMSGKYLHDDFTLPCPPGLKIPEEDGYSITPNTLKTKDEL
secretion of s-apoB (apo21) compared to rPC7, Western blot [2]: rPC7-KDEL significantly reduced (~30%) s-apoB (apo21) secretion compared to rPC7

B3: human PC7 (overexpressed in IHH cells) (protein)
chain: SVHFNDPKYPQQWHLNNRRSPGRDINVTGVWERNVTGRGVTVVVVDDGVEHTIQDIAPNYSPEGSYDLNSNDPDPMPHPDVENGNHHGTRCAGEIAAVPNNSFCAVGVAYGSRIAGIRVLDGPLTDSMEAVAFNKHYQINDIYSCSWGPDDDGKTVDGPHQLGKAALQHGVIAGRQGFGSIFVVASGNGGQHNDNCNYDGYANSIYTVTIGAVDEEGRMPFYAEECASMLAVTFSGGDKMLRSIVTTDWDLQKGTGCTEGHTGTSAAAPLAAGMIALMLQVRPCLTWRDVQHIIVFTATRYEDRRAEWVTNEAGFSHSHQHGFGLLNAWRLVNAAKIWTSVPYLASYVSPVLKENKAIPQSPRSLEVLWNVSRMDLEMSGLKTLEHVAVTVSITHPRRGSLELKLFCPSGMMSLIGAPRSMDSDPNGFNDWTFSTVRCWGERARGTYRLVIRDVGDESFQVGILRQWQLTLYGSVWSAVDIRDRQRLLESAMSGKYLHDDFALPCPPGLKIPEEDGYTITPNTLKTLVLVGCFTVFWTVYYMLEVYLSQRNVASNQVCRSGPCHWPHRSRKAKEEGTELESVPLCSSKDPDEVETESRGPPTTSDLLAPDLLEQGDWSLSQNKSALDCPHQHLDVPHGKEEQIC
secretion of s-apoB (apoB21) into the medium, Western blot [2]: overexpression of PC7 enhanced the secretion of s-apoB (apoB21)
